Experimental data reported in PubChem BioAssay (NCI).
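Method: 48-hour compound exposure of cells in 96-well plates, five concentrations, linear interpolation of endpoints. GI50 is the concentration that inhibits growth by half. At the TGI there is no net growth.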

Legend:
Assay in all cases: growth of human tumour cells (NCI), 48 h
SW-620 colon = test system: SW-620 colon
OVCAR-5 ovarian = test system: OVCAR-5 ovarian
U251 CNS = test system: U251 CNS
HCC-2998 colon = test system: HCC-2998 colon
UO-31 renal = test system: UO-31 renal
SK-OV-3 ovarian = test system: SK-OV-3 ovarian
NCI-H23 lung = test system: NCI-H23 lung
NCI/ADR-RES ovarian = test system: NCI/ADR-RES ovarian
HOP-62 NSCLC = test system: HOP-62 NSCLC
SF-295 CNS = test system: SF-295 CNS

## O=C(/C=C/c1ccncc1)c1cc(Cl)ccc1O
SW-620 colon
  GI50: 12.5 µM
  TGI: 30.5 µM
OVCAR-5 ovarian
  GI50: 24 µM
  TGI: 50.7 µM
U251 CNS
  GI50: 12.7 µM
  TGI: 26.2 µM
HCC-2998 colon
  GI50: 13.5 µM
  TGI: 28.4 µM
UO-31 renal
  GI50: 11 µM
  TGI: 26.7 µM
SK-OV-3 ovarian
  GI50: 27.4 µM
  TGI: 87.7 µM
NCI-H23 lung
  GI50: 17.2 µM
  TGI: 38.8 µM
NCI/ADR-RES ovarian
  GI50: 22.7 µM
  TGI: 66.4 µM
HOP-62 NSCLC
  GI50: 18.3 µM
  TGI: 43.8 µM
SF-295 CNS
  GI50: 15.3 µM
  TGI: 34.8 µM

## O=C1OC(O)[C@@H]2[C@H]1[C@H]1CC[C@@H]2O1 (stereo not given in full)
SW-620 colon
  GI50: 52 µM
  TGI: > 100 µM
OVCAR-5 ovarian
  GI50: 57.3 µM
  TGI: > 100 µM
U251 CNS
  GI50: > 100 µM
  TGI: > 100 µM
HCC-2998 colon
  GI50: 2.19 µM
  TGI: 4.41 µM
UO-31 renal
  GI50: 66.6 µM
  TGI: > 100 µM
SK-OV-3 ovarian
  GI50: > 100 µM
  TGI: > 100 µM
NCI-H23 lung
  GI50: > 100 µM
  TGI: > 100 µM
NCI/ADR-RES ovarian
  GI50: > 100 µM
  TGI: > 100 µM
HOP-62 NSCLC
  GI50: > 100 µM
  TGI: > 100 µM
SF-295 CNS
  GI50: > 100 µM
  TGI: > 100 µM

## COC(=O)C1=C(C)NC(C)=C(C(=O)OCCCN2CCC(c3ccccc3)(c3ccccc3)CC2)C1c1cccc([N+](=O)[O-])c1 (stereo not given)
SW-620 colon
  TGI: 3.75 µM
OVCAR-5 ovarian
  TGI: 7.3 µM
U251 CNS
  TGI: 3.21 µM
HCC-2998 colon
  TGI: 4.58 µM
UO-31 renal
  TGI: 3.89 µM
SK-OV-3 ovarian
  TGI: 12.9 µM
NCI-H23 lung
  TGI: 3.32 µM
NCI/ADR-RES ovarian
  TGI: 3.42 µM
HOP-62 NSCLC
  TGI: 9.16 µM
SF-295 CNS
  TGI: 3.18 µM

## CCCCCCCC(=O)SCC/C=C/[C@@H]1CC(=O)NCc2cc(ccn2)C2=N[C@@](C)(CS2)C(=O)N[C@@H](C(C)C)C(=O)O1
SW-620 colon
  GI50: 0.0749 µM
  TGI: 2.49 µM
OVCAR-5 ovarian
  GI50: < 0.0113 µM
  TGI: > 33.3 µM
U251 CNS
  GI50: 0.0291 µM
  TGI: 0.309 µM
HCC-2998 colon
  GI50: 0.0256 µM
  TGI: 0.245 µM
UO-31 renal
  GI50: 0.0264 µM
  TGI: 0.426 µM
SK-OV-3 ovarian
  GI50: 0.00841 µM
  TGI: 0.0716 µM
NCI-H23 lung
  GI50: 0.0394 µM
  TGI: > 33.3 µM
NCI/ADR-RES ovarian
  GI50: 0.241 µM
  TGI: > 33.3 µM
HOP-62 NSCLC
  GI50: 0.00958 µM
SF-295 CNS
  GI50: 0.0166 µM
  TGI: 0.147 µM

## CC(=O)OC1=CC(n2cc(F)c(=O)[nH]c2=O)OC(C)C1=O (stereo not given)
SW-620 colon
  TGI: > 100 µM
OVCAR-5 ovarian
  TGI: > 100 µM
U251 CNS
  TGI: > 100 µM
HCC-2998 colon
  TGI: > 97.2 µM
UO-31 renal
  TGI: > 100 µM
SK-OV-3 ovarian
  TGI: > 100 µM
NCI-H23 lung
  TGI: > 100 µM
NCI/ADR-RES ovarian
  TGI: > 100 µM
HOP-62 NSCLC
  TGI: > 100 µM
SF-295 CNS
  TGI: > 100 µM

## COc1ccc(/C=C(/C#N)n2nnc3cccc(F)c32)cc1
SW-620 colon
  GI50: 0.399 µM
  TGI: > 100 µM
OVCAR-5 ovarian
  GI50: 1.82 µM
  TGI: 4.56 µM
U251 CNS
  GI50: 1.79 µM
  TGI: > 100 µM
HCC-2998 colon
  GI50: 1.83 µM
  TGI: 7.14 µM
UO-31 renal
  GI50: 1.8 µM
  TGI: 6.87 µM
NCI-H23 lung
  GI50: 1.23 µM
  TGI: 6.3 µM
NCI/ADR-RES ovarian
  GI50: 0.371 µM
  TGI: 3.37 µM
HOP-62 NSCLC
  GI50: 3.25 µM
  TGI: > 100 µM
SF-295 CNS
  GI50: 2.35 µM
  TGI: 17.8 µM

## Nc1ncnc2c1nnn2C1OC(CO)C(O)C1O (stereo not given)
SW-620 colon
  TGI: 8.35 µM
OVCAR-5 ovarian
  TGI: 15.4 µM
U251 CNS
  TGI: 37.8 µM
HCC-2998 colon
  TGI: 5.32 µM
UO-31 renal
  TGI: 6.02 µM
SK-OV-3 ovarian
  TGI: 1.95 µM
NCI-H23 lung
  TGI: 10.8 µM
NCI/ADR-RES ovarian
  TGI: 9.32 µM
HOP-62 NSCLC
  TGI: 5.78 µM
SF-295 CNS
  TGI: 7.59 µM

## COc1cc(/C=C/c2cc(O)c(C(C)=O)c(O)c2)cc2c1O[C@]1(C)CC[C@@H](O)C(C)(C)[C@H]1C2
SW-620 colon
  GI50: 5.52 µM
  TGI: > 100 µM
OVCAR-5 ovarian
  GI50: 16.3 µM
  TGI: 75.5 µM
U251 CNS
  GI50: 3.71 µM
  TGI: > 100 µM
HCC-2998 colon
  GI50: 6.7 µM
  TGI: 32.4 µM
UO-31 renal
  GI50: 3.22 µM
  TGI: 65.5 µM
SK-OV-3 ovarian
  GI50: 9.58 µM
  TGI: 79.1 µM
NCI-H23 lung
  GI50: 10.7 µM
  TGI: 34.5 µM
NCI/ADR-RES ovarian
  GI50: 14.3 µM
  TGI: 65.8 µM
HOP-62 NSCLC
  GI50: 4.56 µM
  TGI: 48.4 µM
SF-295 CNS
  GI50: 2.92 µM
  TGI: 10.5 µM

## Cc1cc(/C=C/c2ccc3cc(N(C)C)ccc3[n+]2C)c(C)n1-c1ccccc1
SW-620 colon
  GI50: 0.174 µM
  TGI: 7.79 µM
OVCAR-5 ovarian
  GI50: 0.688 µM
  TGI: 12.4 µM
U251 CNS
  GI50: 0.129 µM
  TGI: 1.16 µM
HCC-2998 colon
  GI50: 0.203 µM
  TGI: 2.64 µM
UO-31 renal
  GI50: 0.748 µM
  TGI: 4.3 µM
SK-OV-3 ovarian
  GI50: 0.142 µM
  TGI: 1 µM
NCI-H23 lung
  GI50: 0.082 µM
  TGI: 1.76 µM
NCI/ADR-RES ovarian
  GI50: 1.67 µM
  TGI: 13.4 µM
HOP-62 NSCLC
  GI50: 0.191 µM
  TGI: 1.03 µM
SF-295 CNS
  GI50: 0.11 µM
  TGI: 0.409 µM

## COC1=CC(=O)C(C2CC(=O)c3c(O)cc(O)cc3O2)=CC1=O (stereo not given)
SW-620 colon
  TGI: 44.4 µM
OVCAR-5 ovarian
  TGI: 41.4 µM
U251 CNS
  TGI: 37.1 µM
HCC-2998 colon
  TGI: 32.1 µM
UO-31 renal
  TGI: 32.2 µM
SK-OV-3 ovarian
  TGI: > 93.9 µM
NCI-H23 lung
  TGI: 40.5 µM
NCI/ADR-RES ovarian
  TGI: 46.5 µM
HOP-62 NSCLC
  TGI: 34.8 µM
SF-295 CNS
  TGI: 35.1 µM

## Cc1c2c(nn1-c1ccc(S(=O)(=O)/N=C3\SCCC(=O)N3c3ccccc3)cc1)-c1ccccc1CC2
OVCAR-5 ovarian
  GI50: > 100 µM
  TGI: > 100 µM
U251 CNS
  GI50: > 100 µM
  TGI: > 100 µM
HCC-2998 colon
  GI50: > 100 µM
  TGI: > 100 µM
UO-31 renal
  GI50: > 100 µM
  TGI: > 100 µM
SK-OV-3 ovarian
  GI50: > 100 µM
  TGI: > 100 µM
NCI-H23 lung
  GI50: > 100 µM
  TGI: > 100 µM
NCI/ADR-RES ovarian
  GI50: > 100 µM
  TGI: > 100 µM
HOP-62 NSCLC
  GI50: 46.4 µM
  TGI: > 100 µM
SF-295 CNS
  GI50: 75.7 µM
  TGI: > 100 µM
